From patent publication US6444617B1, “Fused-heterocycle dicarboxylic acid diamide derivatives or salts thereof, herbicide and usage thereof” (Nihon Nohyaku Co., Ltd., priority 1998, dated 2002) come the findings set out here.

What all share (assay type): in vivo
Series [1] relates to wheat (Wh). Kind of series: Test Example 3: phytotoxicity to upland crop plants, treatment before emergence. To be noted: dosage 5 kg/ha. In outline:
(§1)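 Pre-emergence treatment: a liquid preparation containing a prescribed concentration of test compound was sprayed, and injury to soybean and wheat was assessed 14 days later. Phytotoxicity was judged against a scoring criterion, alongside weed-killing rate.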

For series [2], the system named is soybean plant (So). The description is as above. To be noted: dosage 5 kg/ha. In short, it runs like this: as §1
Series [3] has as its system cocklebur (Xanthium strumarium L.), Xs. Kind of series: Test Example 4: herbicidal effect on upland weeds after emergence. As to conditions: dosage 5 kg/ha; sprayed after emergence; judged 14 days after treatment. In outline: (§2)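 Weeds, soybean and wheat were sown in soil-filled vats, covered with soil and grown to set leaf stages before a post-emergence spray of an agent containing the compound at a prescribed concentration. Weed-killing rate and crop phytotoxicity were assessed 14 days after treatment.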

Series [4] deals with cleavers (Galium aparine L.), Ga. The description is as above. As to conditions: dosage 5 kg/ha; sprayed after emergence; judged 14 days after treatment. In outline:
as §2

Series [5] deals with forxtail grass (Alopecurus aequalis var. amurensis Ohwi), Am. The description is as above. As to conditions: dosage 5 kg/ha; sprayed after emergence; judged 14 days after treatment. In short, it runs like this:
as §2

In series [6] the test system is velvetleaf (Abutilon theophtasti L.), At. The series is described as above. As to conditions: dosage 5 kg/ha; sprayed after emergence; judged 14 days after treatment. In short, it runs like this: as §2
Series [7] concerns barnyard grass (Echinochloa crus-galli Beauv.), Ec. The description is as above. To be noted: dosage 5 kg/ha; sprayed after emergence; judged 14 days after treatment. In outline: as §2
In series [8] the test system is bird's eye speedwell (Veronica persica Poir.), Vp. The description is as above. As to conditions: dosage 5 kg/ha; sprayed after emergence; judged 14 days after treatment. In short, it runs like this: as §2
Series [9] relates to bulrush (Scirpus juncoides Roxb.). Kind of series: Test Example 1: herbicidal effect on paddy field weeds before emergence. As to conditions: Dosage 5 kg/ha. In outline: (§3)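 Soil in pots is brought to paddy state and seeded with barnyard grass and bulrush; before germination, the soil receives a predetermined dosage of test compound in solution. After twenty-one days, control rate relative to untreated pots is calculated and graded.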

The subject of series [10] is barnyard grass (Echinochloa crus-galli Beauv.). The series is described as above. To be noted: Dosage 5 kg/ha. In outline: as §3
The test system of series [11] is monochoria (Monochoria vaginalis Presl). Kind of series: Test Example 2: herbicidal effect on paddy field weeds after emergence. To be noted: Dosage 5 kg/ha; one-leaved stage; 21 days after treatment. In outline:
(§4)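 Weeds in flooded paddy-soil pots were grown to the one-leaved stage, then the soil was treated with the compound solution at a set dosage.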

The test system of series [12] is bulrush (Scirpus juncoides Roxb.). The description is as above. To be noted: Dosage 5 kg/ha; one-leaved stage; 21 days after treatment. In short, it runs like this:
as §4

Series [13] concerns barnyard grass (Echinochloa crus-galli Beauv.). The series is described as above. As to conditions: Dosage 5 kg/ha; one-leaved stage; 21 days after treatment. In short, it runs like this: as §4
The subject of series [14] is cocklebur (Xanthium strumarium L.), Xs. Kind of series: Test Example 3: herbicidal effect on upland weeds before emergence. As to conditions: dosage 5 kg/ha. In outline:
(§5)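 Herbicidal activity was rated from kill rate determined 14 days post-spray, the compound having been applied pre-emergence as a liquid agent.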

In series [15] the test system is cleavers (Galium aparine L.), Ga. Described as above. As to conditions: dosage 5 kg/ha. In outline: as §5
The subject of series [16] is forxtail grass (Alopecurus aequalis var. amurensis Ohwi), Am. The series is described as above. As to conditions: foxtail grass, dosage 5 kg/ha. In outline: as §5
In series [17] the test system is velvetleaf (Abutilon theophtasti L.), At. The series is described as above. To be noted: dosage 5 kg/ha. In short, it runs like this:
as §5

The subject of series [18] is barnyard grass (Echinochloa crus-galli Beauv.), Ec. The series is described as above. To be noted: dosage 5 kg/ha. In outline:
as §5

In series [19] the test system is bird's eye speedwell (Veronica persica Poir.), Vp. The description is as above. To be noted: dosage 5 kg/ha. In outline: as §5
Series [20] concerns soybean plant. Kind of series: Test Example 4: phytotoxicity to upland crop plants, treatment after emergence. To be noted: dosage 5 kg/ha, sprayed after emergence, judged 14 days after treatment. In short, it runs like this:
as §2

Series [21] deals with wheat. Described as above. As to conditions: dosage 5 kg/ha, sprayed after emergence, judged 14 days after treatment. In outline:
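Upland weeds and crop plants (soybean, wheat) are grown from seed in soil until they reach given leaf stages, then treated by spraying with the compound-containing agent; effects are judged two weeks later.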

Molecules are shown by their SMILES.

For the molecule `CCc1ccc(Cl)c(CC)c1NC(=O)c1cc2cc3c(cc2nc1C(=O)NCC(C)C)OCO3` [compound 339], the “Phytotoxicity Wh” value is 1 (Crop-killing rate is 1-39%.) in series [1] and 2 (Crop-killing rate is 40-69%.) in series [21]. Also, the “Phytotoxicity So” value is 0 (Crop-killing rate is 0-20% (No Phytotoxicity).) in series [2] and 1 (Crop-killing rate is 1-39%.) in [20]. Moreover, the “Herbicidal effect Xs” value in series [3] and in series [14] was 2 (Weed-killing rate is 40-69%.) in each case. Also, the “Herbicidal effect Ga” value is 2 (Weed-killing rate is 40-69%.) in [4] and 3 (Weed-killing rate is 70-89%.) in series [15]. Also, the “Herbicidal effect Am” value in series [5] is 3 (Weed-killing rate is 70-89%.); in series [16], 4 (Weed-killing rate is 90-99%.). The “Herbicidal effect At” value in series [6] and in [17] was 4 (Weed-killing rate is 90-99%.) throughout. Moreover, the “Herbicidal effect Ec” value in series [7] and in series [18] was 4 (Weed-killing rate is 90-99%.) throughout. The “Herbicidal effect Vp” value in series [8] and in series [19] was 4 (Weed-killing rate is 90-99%.) in each case. The “Pre-emergence treatment Bulrush (herbicidal effect)” value (“Pre-emergence treatment Bulrush” for short) in series [9] is reported as 3 (Weed-killing rate is 70-89%.). Moreover, the “Pre-emergence treatment Barnyard grass (herbicidal effect)” value (shortened to “Pre-emergence treatment Barnyard grass”) in series [10] is recorded as 4 (Weed-killing rate is 90-99%.). In addition, the “Post-emergence treatment Monochoria (herbicidal effect)” value (shortened to “Post-emergence treatment Monochoria”) in series [11] was 4 (Weed-killing rate is 90-99%.). Moreover, the “Post-emergence treatment Bulrush (herbicidal effect)” value (“Post-emergence treatment Bulrush” below) in series [12] is on record as 2 (Weed-killing rate is 40-69%.). Also, the “Post-emergence treatment Barnyard grass (herbicidal effect)” value (shortened to “Post-emergence treatment Barnyard grass”) in series [13] is 3 (Weed-killing rate is 70-89%.).

As for `CCc1ccc(Cl)c(CC)c1NC(=O)c1cc2cc3c(cc2nc1C(=O)NC1CCCC1)OCO3` [compound 343], the “Phytotoxicity Wh” value in series [1] and in [21] was 0 (Crop-killing rate is 0-20% (No Phytotoxicity).) in each case. Moreover, the “Phytotoxicity So” value in series [2] and in series [20] was 0 (Crop-killing rate is 0-20% (No Phytotoxicity).) throughout. Moreover, the “Herbicidal effect Xs” value in series [3] and in [14] was 2 (Weed-killing rate is 40-69%.) throughout. The “Herbicidal effect Ga” value in series [4] is recorded as 2 (Weed-killing rate is 40-69%.); in series [15], 3 (Weed-killing rate is 70-89%.). Moreover, the “Herbicidal effect Am” value in [5] is on record as 2 (Weed-killing rate is 40-69%.); in [16], 3 (Weed-killing rate is 70-89%.). Also, the “Herbicidal effect At” value in series [6] and in [17] was 3 (Weed-killing rate is 70-89%.) in each case. Moreover, the “Herbicidal effect Ec” value in [7] and in [18] was 4 (Weed-killing rate is 90-99%.) throughout. Further, the “Herbicidal effect Vp” value in series [8] was 3 (Weed-killing rate is 70-89%.); in [19], 4 (Weed-killing rate is 90-99%.). Further, the “Pre-emergence treatment Bulrush” value in series [9] was 3 (Weed-killing rate is 70-89%.). Moreover, the “Pre-emergence treatment Barnyard grass” value in series [10] is reported as 5 (Weed-killing rate is 100%.). For the same molecule, the “Post-emergence treatment Monochoria” value in [11] was 5 (Weed-killing rate is 100%.). For the same molecule, the “Post-emergence treatment Bulrush” value in series [12] is listed as 3 (Weed-killing rate is 70-89%.). For the same molecule, the “Post-emergence treatment Barnyard grass” value in [13] is reported as 3 (Weed-killing rate is 70-89%.).

`CCCNC(=O)c1nc2ncccc2cc1C(=O)Nc1c(CC)ccc(Cl)c1CC` [compound 361]: the “Phytotoxicity Wh” value is recorded as 4 (Crop-killing rate is 90-99%.) in series [1] and 5 (Crop-killing rate is 100%.) in [21]. Also, the “Phytotoxicity So” value in [2] and in series [20] was 4 (Crop-killing rate is 90-99%.) each time. The “Herbicidal effect Xs” value in [3] and in series [14] was 5 (Weed-killing rate is 100%.) throughout. For the same molecule, the “Herbicidal effect Ga” value in series [4] and in series [15] was 5 (Weed-killing rate is 100%.) each time. Besides, the “Herbicidal effect Am” value in [5] and in series [16] was 5 (Weed-killing rate is 100%.) each time. The “Herbicidal effect At” value in series [6] and in series [17] was 5 (Weed-killing rate is 100%.) throughout. In addition, the “Herbicidal effect Ec” value in series [7] and in series [18] was 5 (Weed-killing rate is 100%.) each time. In addition, the “Herbicidal effect Vp” value in series [8] and in series [19] was 5 (Weed-killing rate is 100%.) throughout. Moreover, the “Pre-emergence treatment Bulrush” value in series [9] is listed as 5 (Weed-killing rate is 100%.). The “Pre-emergence treatment Barnyard grass” value in series [10] was 5 (Weed-killing rate is 100%.). Besides, the “Post-emergence treatment Monochoria” value in series [11] is 5 (Weed-killing rate is 100%.). Further, in series [12], the “Post-emergence treatment Bulrush” value is 5 (Weed-killing rate is 100%.). The “Post-emergence treatment Barnyard grass” value in series [13] is 5 (Weed-killing rate is 100%.).

As to `CCCNC(=O)c1nc2ncccc2cc1C(=O)Nc1cccc(Cl)c1C` [compound 375], the “Phytotoxicity Wh” value in series [1] was 3 (Crop-killing rate is 70-89%.); in [21] it was 4 (Crop-killing rate is 90-99%.). Moreover, the figures for the “Phytotoxicity So” value in [2] and in series [20] were 3 (Crop-killing rate is 70-89%.) and 4 (Crop-killing rate is 90-99%.), respectively. Moreover, the “Herbicidal effect Xs” value in series [3] and in [14] was 5 (Weed-killing rate is 100%.) throughout. For the same molecule, the “Herbicidal effect Ga” value in series [4] and in series [15] was 5 (Weed-killing rate is 100%.) throughout. Also, the “Herbicidal effect Am” value in [5] and in series [16] was 5 (Weed-killing rate is 100%.) each time. Also, the “Herbicidal effect At” value in series [6] and in series [17] was 5 (Weed-killing rate is 100%.) in each case. Besides, the “Herbicidal effect Ec” value in series [7] and in series [18] was 5 (Weed-killing rate is 100%.) throughout. Also, the “Herbicidal effect Vp” value in series [8] and in series [19] was 5 (Weed-killing rate is 100%.) each time. Further, the “Pre-emergence treatment Bulrush” value in series [9] is 5 (Weed-killing rate is 100%.). Further, the “Pre-emergence treatment Barnyard grass” value in series [10] was 5 (Weed-killing rate is 100%.). For the same molecule, in series [11], the “Post-emergence treatment Monochoria” value is 5 (Weed-killing rate is 100%.). In series [12], the “Post-emergence treatment Bulrush” value is reported as 5 (Weed-killing rate is 100%.). Further, the “Post-emergence treatment Barnyard grass” value in series [13] is on record as 5 (Weed-killing rate is 100%.).
